# Results published in patent publication US20220259164A1, “USE OF AMINOTHIOL COMPOUNDS AS CEREBRAL NERVE OR HEART PROTECTIVE AGENT” (SHANGHAI KECHOW PHARMA, INC., priority 2019, published 2022).
# Several values for one entry are separate records, joined by “and”; a condition that tells them apart may be missing. Equal entries are not always repeated.
# What was measured:
# [1] = system: cisplatin-induced nephrotoxicity in SD rats; experiment: Cisplatin-induced nephrotoxicity in SD rats: blood creatinine and urea nitrogen; format: in vivo, rat; conditions: for Creatinine / Urea nitrogen: whole blood day 5, individual rats
# Procedure: Healthy male SPF grade SD rats (body weight 250-300 g) were selected. Control group: PBS […] Cisplatin+compound B group: 5 mg/kg i.p.+compound B at 200 mg/kg i.p., with compound B being administered 30 min prior to cisplatin administration Cisplatin+amifostine group: 5 mg/kg i.p.+AMI at 200 mg/kg i.p., with AMI being administered 30 min prior to cisplatin administration Cisplatin+compound A group: 5 mg/kg i.p.+compound A at 800 mg/kg p.o., with compound A being administered 30 min prior to cisplatin administration (1) The SD rats used in the experiment were weighed, labeled, and evenly divided into 5 groups, with 3 SD rats in each group. (2) The compound B, compound A, and AMI groups were respectively administered at the planned concentrations. […] (3) The rats were weighed and recorded daily, and on day 5, blood was taken from the intraocular canthus of the SD rats and placed in an anticoagulant tube.
# [2] = Body weight of cisplatin-induced SD rats; format: in vivo, rat
# Procedure: Healthy male SPF grade SD rats (body weight 250-300 g) were selected. Cisplatin+compound B group: 5 mg/kg i.p.+compound B at 200 mg/kg i.p., with compound B being administered 30 min prior to cisplatin administration Cisplatin+amifostine group: 5 mg/kg i.p.+AMI at 200 mg/kg i.p., with AMI being administered 30 min prior to cisplatin administration Cisplatin+compound A group: 5 mg/kg i.p.+compound A at 800 mg/kg p.o., with compound A being administered 30 min prior to cisplatin administration (1) The SD rats used in the experiment were weighed, labeled, and evenly divided into 5 groups, with 3 SD rats in each group. (2) The compound B, compound A, and AMI groups were respectively administered at the planned concentrations. […] (3) The rats were weighed and recorded daily, and on day 5, blood was taken from the intraocular canthus of the SD rats and placed in an anticoagulant tube.
# [3] = system: rat myocardial infarction model (coronary ligation 30 min, reperfusion); experiment: Myocardial infarction model: myocardial enzyme LDH in serum; format: in vivo; conditions: isosorbide mononitrate injection i.v. 1 mg/kg
# Procedure: 1. The rats were grouped and administered according to the following methods (2) Compound B (i.v.) at 100 mg/kg (3) Compound A (i.v.) at 100 mg/kg (4) Compound A (oral) at 500 mg/kg (5) Isosorbide mononitrate injection (i.v.) at 1 mg/kg (equivalent to clinical equivalent dose). There were 10 rats in each group, and the rats were administered intravenously immediately after 30 min of ischemia and reperfusion, i.v. 10% 1 min+i.v. drip 90% 30 min. The administration volume was 2 ml/rat. Compound A (oral) at 500 mg/kg was administered intragastrically 2 h after reperfusion when the animal was awake, and the administration volume was 10 ml/kg. Note: Compounds A and B used in this example were in the form of hydrochloride salts thereof. Given intraperitoneal injection of 3% sodium pentobarbital at 60 mg/kg for general anesthesia, the rats were fixed on an operating table in the supine position. The surgical field of the anterolateral chest was depilated and routinely disinfected. The skin and muscular layer were cut open, purse-string suture was performed on the muscular layer, the chest was opened on the left at the fourth intercostal space, and the heart was pulled out with a ring-shaped retractor. At the position of the anterior descending coronary artery 3-4 mm below the left atrial appendage, a 6/0 damage-free silk thread was threaded, and a nylon thread with a diameter of 1.6 mm was juxtaposed and ligated together with the anterior descending coronary artery, while the other end was left outside the body for later use. The heart was placed back into the chest cavity, the air in the chest cavity was emptied, and the chest cavity was closed. 30 min after ligation, the nylon thread was carefully removed for reperfusion. Compared with the normal lead II electrocardiogram (ECG-II), ST segment elevation in ECG-II by 0.1 mV or more 30 min after coronary artery ligation was regarded as successful ischemia. […] Blood was collected from the rats through the abdominal aorta and centrifuged at 3000 rpm×10 min at 4° C., and the upper serum was taken to determine LDH by enzyme-linked immunosorbent assay.
# [4] = system: rat myocardial infarction model (coronary ligation 30 min, reperfusion); experiment: Myocardial infarction model: myocardial infarction range (TTC staining); format: in vivo; conditions: isosorbide mononitrate injection i.v. 1 mg/kg
# Procedure: 1. The rats were grouped and administered according to the following methods (2) Compound B (i.v.) at 100 mg/kg (3) Compound A (i.v.) at 100 mg/kg (4) Compound A (oral) at 500 mg/kg (5) Isosorbide mononitrate injection (i.v.) at 1 mg/kg (equivalent to clinical equivalent dose). There were 10 rats in each group, and the rats were administered intravenously immediately after 30 min of ischemia and reperfusion, i.v. 10% 1 min+i.v. drip 90% 30 min. The administration volume was 2 ml/rat. Compound A (oral) at 500 mg/kg was administered intragastrically 2 h after reperfusion when the animal was awake, and the administration volume was 10 ml/kg. Note: Compounds A and B used in this example were in the form of hydrochloride salts thereof. Given intraperitoneal injection of 3% sodium pentobarbital at 60 mg/kg for general anesthesia, the rats were fixed on an operating table in the supine position. The surgical field of the anterolateral chest was depilated and routinely disinfected. The skin and muscular layer were cut open, purse-string suture was performed on the muscular layer, the chest was opened on the left at the fourth intercostal space, and the heart was pulled out with a ring-shaped retractor. At the position of the anterior descending coronary artery 3-4 mm below the left atrial appendage, a 6/0 damage-free silk thread was threaded, and a nylon thread with a diameter of 1.6 mm was juxtaposed and ligated together with the anterior descending coronary artery, while the other end was left outside the body for later use. The heart was placed back into the chest cavity, the air in the chest cavity was emptied, and the chest cavity was closed. 30 min after ligation, the nylon thread was carefully removed for reperfusion. Compared with the normal lead II electrocardiogram (ECG-II), ST segment elevation in ECG-II by 0.1 mV or more 30 min after coronary artery ligation was regarded as successful ischemia.
# [5] = system: radiation lung injury in C57 male mice; experiment: Protective effect on radiation lung injury (HE staining of lung); format: in vivo; conditions: 517 mpk i.p. 30 min before 17 Gy right lung irradiation; months 2, 4, 6
# Procedure: C57 male mice were randomly divided into 4 groups, namely a blank control group, an irradiation group, a compound B (TFA) irradiation group, and an AMI irradiation group, respectively. The mode of administration for each group was an intraperitoneal injection, 30 min before irradiation. The dosage of administration was 517 mpk, and the irradiation dose to the right lung was 17 Gy. […] Lung tissues were taken at months 2, 4, and 6 for HE staining
# [6] = system: radiation intestinal injury in C57 male mice; experiment: Protective effect on radiation intestinal injury (HE staining of small intestine); format: in vivo; conditions: 517 mpk i.p. 30 min before 16 Gy abdominal irradiation; fifth day
# Procedure: C57 male mice were randomly divided into 4 groups, namely a blank control group, an irradiation group, a compound B (TFA) irradiation group, and an AMI irradiation group, respectively. The mode of administration for each group was an intraperitoneal injection, 30 min before irradiation. The dosage of administration was 517 mpk, and the abdominal irradiation dose was 16 Gy. On the fifth day, the small intestine tissue was taken for HE staining.
# [7] = system: SD rat cerebral ischemia reperfusion injury model (MCAO); experiment: Neurobehavioral evaluation (5-point Longa/Bederson score) in rat ischemic stroke model (MCAO); format: in vivo; set-up: key to Neurological function score After modeling: Longa/Bederson 5-point scale (0-4); higher = more severe deficit; conditions: for Neurological function score After modeling: individual rats
# Source text: Healthy male SPF grade SD rats (body weight 250-300 g) were selected. […] (2) A midline neck incision was made to expose the right common carotid artery, internal carotid artery and external carotid artery. A 6-0 silk thread was used to ligate the distal end of the external carotid artery at 4 mm from the bifurcation of the common carotid artery, another 6-0 silk thread was inserted at the external carotid artery, and a slipknot was tied near the bifurcation of the common carotid artery. (3) An arterial clamp was used to clamp the common carotid artery. […] (4) The thread embolism was removed 90 min after ischemia, the proximal end of the external artery was ligated with a 6-0 silk thread, the neck wound was sutured with a 3-0 silk thread, the wound was disinfected with povidone iodine, the rats were placed on a heating pad, and after being awake, they were placed in a constant temperature rearing box for rearing. […] The experimental animals were scored for signs of neurological function deficit before and after modeling. The scoring standard was given by reference to the 5-point system of Longa and Bederson. The scoring was performed 24 h after the animals were awake from anesthesia. The higher the score, the more severe the behavioral disorder of the animals. 0 point: No nerve damage symptoms […] Inability to fully extend the contralateral front paw […] Turning in a circle to the opposite side […] Falling over to the opposite side 4 points: Inability to walk spontaneously, and loss of consciousness In a manner same as in Example 1, experimental animals were selected, except that the experiment was divided into seven groups (i.e., groups […], and G, among which groups C, D, and E were given different dosages of administration from Example 1, group F was given edaravone, and group G was given amifostine).
# [8] = system: SD rat cerebral ischemia reperfusion injury model (MCAO); experiment: TTC staining and cerebral infarction area in rat ischemic stroke model (MCAO); format: in vivo; conditions: for Cerebral infarction area: individual rats
# Procedure: Healthy male SPF grade SD rats (body weight 250-300 g) were selected. (1) The rats were anesthetized, the skin on the neck was prepared, and the body temperature was maintained at 37±0.5° C. (2) A midline neck incision was made to expose the right common carotid artery, internal carotid artery and external carotid artery. A 6-0 silk thread was used to ligate the distal end of the external carotid artery at 4 mm from the bifurcation of the common carotid artery, another 6-0 silk thread was inserted at the external carotid artery, and a slipknot was tied near the bifurcation of the common carotid artery. (3) An arterial clamp was used to clamp the common carotid artery. A small opening was cut on the external carotid artery at 3 mm from the bifurcation of the common carotid artery, and a 0.33 mm diameter nylon thread with a treated head end was inserted through the small opening, entered the internal carotid artery, and was inserted inward to the middle cerebral artery, wherein the insertion depth of the nylon thread was about 16±1 mm from the bifurcation of the common carotid artery. (4) The thread embolism was removed 90 min after ischemia, the proximal end of the external artery was ligated with a 6-0 silk thread, the neck wound was sutured with a 3-0 silk thread, the wound was disinfected with povidone iodine, the rats were placed on a heating pad, and after being awake, they were placed in a constant temperature rearing box for rearing. […] After the rats were anesthetized, the brain tissues were taken from the rats, placed in a refrigerator and frozen at -20° C. for 30 min. 1% TTC (W/V) was prepared with PBS and placed in a water bath at 37° C. until the TTC was dissolved, and the frozen brain tissue was sliced, placed in 10 ml of the TTC solution and incubated at 37° C. for 10 min. The brain slices were turned from time to time to make the tissue evenly stained. Normal brain tissue was bright red after staining, whereas the infarction region was pale white in color or light white in a black and white image. In addition, a software was used to measure and statistically analyze the infarction area. In a manner same as in Example 1, experimental animals were selected, except that the experiment was divided into seven groups (i.e., groups […], and G, among which groups C, D, and E were given different dosages of administration from Example 1, group F was given edaravone, and group G was given amifostine).
# [9] = amifostine 200 mg/kg i.p. 30 min prior to cisplatin 5 mg/kg i.p.
# [10] = Example 2 group G: amifostine 100 mg/kg i.p. 5 min before reperfusion
# [11] = Example 2 group F: edaravone 3 mg/kg i.v. before reperfusion
smiles,measurement,setting,value
"[NH2][Pt]([NH2])([Cl])[Cl] [CDDP, cisplatin, reference compound]",Creatinine,[1]; cisplatin alone 5 mg/kg i.p.,58.6 µmol/L and 54.1 µmol/L and 78 µmol/L
same,Urea nitrogen,[1]; cisplatin alone 5 mg/kg i.p.,18.70 mmol/L and 7.81 mmol/L and 12.9 mmol/L
same,Change in body weight,[2]; cisplatin alone 5 mg/kg i.p.,the body weight dropped significantly
"O=[N+]([O-])O[C@@H]1CO[C@H]2[C@@H]1OC[C@@H]2O [Isosorbide mononitrate injection, Isosorbide mononitrate, reference compound]",Improvement rate (%) of LDH,[3]; compared with model group,22.4%
same,LDH,"[3]; serum, x ± s, n = 10",1472.7 ± 454.5 U/L
same,Improvement rate (%) of myocardial infarction range,[4]; compared with model group,25.5%
same,Infarction range (%),"[4]; x ± s, n = 10",30.1 ± 6.7 %
"NCCCNCCSP(=O)(O)O [amifostine, reference compound]",Effect on cisplatin-induced increase of blood creatinine and urea nitrogen (in words),"[1]; 30 min prior to cisplatin 5 mg/kg i.p.: compound B 200 mg/kg i.p., compound A 800 mg/kg p.o., amifostine 200 mg/kg i.p., day 5",significantly reduce the increased blood creatinine and urea nitrogen levels
same,Creatinine,[1]; [9],19.8 µmol/L and 38.9 µmol/L and 21.9 µmol/L
same,Urea nitrogen,[1]; [9],5.51 mmol/L and 5.34 mmol/L and 5.49 mmol/L
same,Inflammatory cell infiltration / radiation pneumonitis in lung (HE staining),[5],could partially relieve the inflammatory cell infiltration and reduce the occurrence of radiation pneumonitis
same,Change in body weight of cisplatin-induced SD rats,"[2]; 30 min prior to cisplatin 5 mg/kg i.p.: compound B 200 mg/kg i.p., compound A 800 mg/kg p.o., amifostine 200 mg/kg i.p., weighed daily",the degree of decrease was significantly better than that of the cisplatin group
same,Changes in the intestinal villi structure (HE staining),[6],milder than that in the irradiation group
same,% Behavioral improvement,[7]; [10],29.32%
same,Neurological function score After modeling,[7]; [10],2 (2×) and 1 (2×) and 3 (2×)
same,% Improvement of cerebral infarction area,[8]; [10],23.24%
same,Cerebral infarction area,[8]; [10],58.88 mm^3 and 20.71 mm^3 and 0 mm^3 and 244.96 mm^3 and 204.11 mm^3 and 20.31 mm^3
"CC1=NN(c2ccccc2)C(=O)C1 [edaravone, reference compound]",% Behavioral improvement,[7]; [11],46.99%
same,Neurological function score After modeling,[7]; [11],1 (4×) and 2 and 3
same,% Improvement of cerebral infarction area,[8]; [11],58.85% and 58.95%
same,Cerebral infarction area,[8]; [11],0 mm^3 (2×) and 10.31 mm^3 and 45.35 mm^3 and 220.66 mm^3 and 17.11 mm^3
